How the values were obtained:
Test in all cases: relative viability (nuclei count vs DMSO), 5 days (fraction); higher = more cells survive
ABC-1 = system: ABC-1
How it was run: (§1)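 Values are medians from duplicate plates. Each reflects relative viability, defined as the nuclei count of treated wells over that of vehicle wells. Lung cancer cell lines in 1536-well plates were pin-tool dosed one day after seeding with one drug alone or with a fixed anchor-drug dose plus five library-drug doses (not always all listed) in √10 steps, then fixed, stained and imaged at 4× after 5 days.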

BEN = system: BEN
How it was run: as §1

EPLC-272H = system: EPLC-272H
How it was run: as §1

HCC-827 = system: HCC-827
How it was run: as §1

HOP-62 = system: HOP-62
How it was run: as §1

LU99A = system: LU99A
How it was run: as §1

NCI-H1355 = system: NCI-H1355
How it was run: as §1

NCI-H1666 = system: NCI-H1666
How it was run: as §1

NCI-H1975 = system: NCI-H1975
How it was run: as §1

NCI-H2170 = system: NCI-H2170
How it was run: as §1

NCI-H23 = system: NCI-H23
How it was run: as §1

NCI-H2405 = system: NCI-H2405
How it was run: as §1

NCI-H3122 = system: NCI-H3122
How it was run: as §1

NCI-H322M = system: NCI-H322M
How it was run: as §1

NCI-H358 = system: NCI-H358
How it was run: as §1

NCI-H520 = system: NCI-H520
How it was run: as §1

NCI-H596 = system: NCI-H596
How it was run: as §1

NCI-H647 = system: NCI-H647
How it was run: as §1

NCI-H727 = system: NCI-H727
How it was run: as §1

NCI-H838 = system: NCI-H838
How it was run: as §1

PC-14 = system: PC-14
How it was run: as §1

SW 900 = system: SW 900
How it was run: as §1

UMC-11 = system: UMC-11
How it was run: as §1

For `CCCCCCCCCCCC1=C(O)C(=O)C=C(O)C1=O` [Embelin] + Cc1cc(Nc2cc(N3CCN(C)CC3)nc(Sc3ccc(NC(=O)C4CC4)cc3)n2)n[nH]1 [Tozasertib] (partner 0.1 µM), the relative viability (ABC-1; first compound 0.08 µM) was 0.189, the relative viability (ABC-1; first compound 0.8 µM) was 0.166 and the relative viability (ABC-1; first compound 2.53 µM) was 0.181. For the same molecule, the relative viability (ABC-1; first compound 8 µM) was 0.148, the relative viability (BEN; first compound 0.08 µM) was 0.518 and the relative viability (BEN; first compound 0.8 µM) was 0.591. It also gave a relative viability (BEN; first compound 2.53 µM) of 0.542, a relative viability (BEN; first compound 8 µM) of 0.512 and a relative viability (EPLC-272H; first compound 0.08 µM) of 0.213. The relative viability (EPLC-272H; first compound 0.8 µM) was 0.182, the relative viability (EPLC-272H; first compound 2.53 µM) was 0.277 and the relative viability (EPLC-272H; first compound 8 µM) was 0.22. The relative viability (HCC-827; first compound 0.08 µM) was 0.428, the relative viability (HCC-827; first compound 0.8 µM) was 0.447 and the relative viability (HCC-827; first compound 2.53 µM) was 0.419. For the same molecule, the relative viability (HCC-827; first compound 8 µM) was 0.424, the relative viability (HOP-62; first compound 0.08 µM) was 0.313 and the relative viability (HOP-62; first compound 0.8 µM) was 0.456. The relative viability (HOP-62; first compound 2.53 µM) was 0.377, the relative viability (HOP-62; first compound 8 µM) was 0.387 and the relative viability (LU99A; first compound 0.08 µM) was 0.331. The relative viability (LU99A; first compound 0.8 µM) was 0.261, the relative viability (LU99A; first compound 2.53 µM) was 0.277 and the relative viability (LU99A; first compound 8 µM) was 0.264. For the same molecule, the relative viability (NCI-H1355; first compound 0.08 µM) was 0.608, the relative viability (NCI-H1355; first compound 0.8 µM) was 0.704 and the relative viability (NCI-H1355; first compound 2.53 µM) was 0.546. For the same molecule, the relative viability (NCI-H1355; first compound 8 µM) was 0.499, the relative viability (NCI-H1666; first compound 0.08 µM) was 0.615 and the relative viability (NCI-H1666; first compound 0.8 µM) was 0.68. For the same molecule, the relative viability (NCI-H1666; first compound 2.53 µM) was 0.639, the relative viability (NCI-H1666; first compound 8 µM) was 0.615 and the relative viability (NCI-H1975; first compound 0.08 µM) was 0.901. It also gave a relative viability (NCI-H1975; first compound 0.8 µM) of 0.745, a relative viability (NCI-H1975; first compound 2.53 µM) of 0.683 and a relative viability (NCI-H1975; first compound 8 µM) of 0.839. It also gave a relative viability (NCI-H2170; first compound 0.08 µM) of 0.798, a relative viability (NCI-H2170; first compound 0.8 µM) of 0.761 and a relative viability (NCI-H2170; first compound 2.53 µM) of 0.818. For the same molecule, the relative viability (NCI-H2170; first compound 8 µM) was 0.731, the relative viability (NCI-H23; first compound 0.08 µM) was 0.47 and the relative viability (NCI-H23; first compound 0.8 µM) was 0.462. For the same molecule, the relative viability (NCI-H23; first compound 2.53 µM) was 0.36, the relative viability (NCI-H23; first compound 8 µM) was 0.34 and the relative viability (NCI-H2405; first compound 0.08 µM) was 0.816. It also gave a relative viability (NCI-H2405; first compound 0.8 µM) of 0.798, a relative viability (NCI-H2405; first compound 2.53 µM) of 0.847 and a relative viability (NCI-H2405; first compound 8 µM) of 0.826. It also gave a relative viability (NCI-H3122; first compound 0.08 µM) of 0.356, a relative viability (NCI-H3122; first compound 0.8 µM) of 0.457 and a relative viability (NCI-H3122; first compound 2.53 µM) of 0.424. It also gave a relative viability (NCI-H3122; first compound 8 µM) of 0.417, a relative viability (NCI-H322M; first compound 0.08 µM) of 0.526 and a relative viability (NCI-H322M; first compound 0.8 µM) of 0.52. For the same molecule, the relative viability (NCI-H322M; first compound 2.53 µM) was 0.521, the relative viability (NCI-H322M; first compound 8 µM) was 0.503 and the relative viability (NCI-H358; first compound 0.08 µM) was 0.116. For the same molecule, the relative viability (NCI-H358; first compound 0.8 µM) was 0.0994, the relative viability (NCI-H358; first compound 2.53 µM) was 0.108 and the relative viability (NCI-H358; first compound 8 µM) was 0.106. It also gave a relative viability (NCI-H520; first compound 0.08 µM) of 0.56, a relative viability (NCI-H520; first compound 0.8 µM) of 0.459 and a relative viability (NCI-H520; first compound 2.53 µM) of 0.467. For the same molecule, the relative viability (NCI-H520; first compound 8 µM) was 0.376, the relative viability (NCI-H596; first compound 0.08 µM) was 0.821 and the relative viability (NCI-H596; first compound 0.8 µM) was 1.06. The relative viability (NCI-H596; first compound 2.53 µM) was 0.952, the relative viability (NCI-H596; first compound 8 µM) was 0.939 and the relative viability (NCI-H647; first compound 0.08 µM) was 0.361. It also gave a relative viability (NCI-H647; first compound 0.8 µM) of 0.26, a relative viability (NCI-H647; first compound 2.53 µM) of 0.288 and a relative viability (NCI-H647; first compound 8 µM) of 0.245. The relative viability (NCI-H727; first compound 0.08 µM) was 0.552, the relative viability (NCI-H727; first compound 0.8 µM) was 0.565 and the relative viability (NCI-H727; first compound 2.53 µM) was 0.634. For the same molecule, the relative viability (NCI-H727; first compound 8 µM) was 0.675, the relative viability (NCI-H838; first compound 0.08 µM) was 0.298 and the relative viability (NCI-H838; first compound 0.8 µM) was 0.272. It also gave a relative viability (NCI-H838; first compound 2.53 µM) of 0.282, a relative viability (NCI-H838; first compound 8 µM) of 0.295 and a relative viability (PC-14; first compound 0.08 µM) of 0.612. For the same molecule, the relative viability (PC-14; first compound 0.8 µM) was 0.718, the relative viability (PC-14; first compound 2.53 µM) was 0.74 and the relative viability (PC-14; first compound 8 µM) was 0.644. For the same molecule, the relative viability (SW 900; first compound 0.08 µM) was 0.438, the relative viability (SW 900; first compound 0.8 µM) was 0.672 and the relative viability (SW 900; first compound 2.53 µM) was 0.511. The relative viability (SW 900; first compound 8 µM) was 0.718, the relative viability (UMC-11; first compound 0.08 µM) was 0.211 and the relative viability (UMC-11; first compound 0.8 µM) was 0.199. The relative viability (UMC-11; first compound 2.53 µM) was 0.184 and the relative viability (UMC-11; first compound 8 µM) was 0.192.

Source: the supplement of paper PMC10307832
